According to PMC6496756, “Zerumbone, a cyclic sesquiterpene, exerts antimitotic activity in HeLa cells through tubulin binding and exhibits synergistic activity with vinblastine and paclitaxel” (Cell Proliferation, 2018):

Biological target: T1, tubulin (alpha/beta heterodimer)
T1 construct: purified goat brain tubulin; with alpha-tubulin/beta-tubulin heterodimer
Test: intrinsic tryptophan fluorescence quenching; also competition with colchicine and inhibition of tubulin polymerization
Assay type: binding, Capra hircus

Compound: C/C1=C\CC(C)(C)/C=C/C(=O)/C(C)=C/CC1 [zerumbone, (2E,6E,10E)‐2,6,9,9‐tetramethylcycloundeca‐2,6,10‐trien‐1‐one]
- Kd: 4 µM
